Test results from US11147272B2, “Pyridone compounds and agricultural and horticultural fungicides comprising the same as active ingredients” (MITSUI CHEMICALS AGRO, INC., priority 2017, dated 2021).

Columns and labels:
Magnaporthe grisea = assay: whole plant or invertebrate; type: in vivo; details: Blast on rice; control value class
[1] = tested on: Blumeria graminis f. sp. hordei; assay: Test Example D: Powdery mildew on barley; details: Powdery mildew on barley; control value class
Botrytis cinerea = assay: Test Example B: Gray mold on tomato; details: Gray mold on tomato; control value class
Phytophthora infestans = assay: whole plant or invertebrate; type: in vivo; details: Late blight on tomato; control value class
Puccinia recondita = assay: Test Example E: Brown rust on wheat; type: in vivo; details: Brown rust on wheat; control value class
Plasmopara viticola = assay: Test Example G: Downy mildew on vine; details: Downy mildew on vine; 250 ppm spray, 7 to 10 days after inoculation
Alternaia brassicicola = assay: Test Example C: Alternaria sooty spot on cabbage; type: in vivo; details: Alternaria sooty spot on cabbage; control value class
Excerpt: Seeds of a test plant (cabbage variety: Shikidori) were planted and cultivated until the cotyledons extended.
<Control Value> Control value=100{1−(n/3)}

[2] = tested on: Colletotrichum orbiculare; assay: Test Example H: Anthracnose on cucumber; details: Anthracnose on cucumber; 250 ppm spray, 6 to 10 days after inoculation

Row | Structure (SMILES) | Test A control value (Magnaporthe grisea) | Test D control value [1] | Test B control value (Botrytis cinerea) | Test F control value (Phytophthora infestans) | Test E control value (Puccinia recondita) | Test G control value (Plasmopara viticola) | Test C control value (Alternaia brassicicola) | Test H control value [2]
1 | CCC1=C(c2ccc(F)cc2Br)N(CC)C(=O)CC1 [compound 338] | L (50% or less control value) | L (50% or less control value) | L (50% or less control value) | L (50% or less control value) | L (50% or less control value) | L (50% or less control value) | H (more than 50% control value) | L (50% or less control value)
2 | CCc1ccc(=O)n(CC)c1-c1ccc(F)cc1Br [compound 340] | L (50% or less control value) | H (more than 50% control value) | H (more than 50% control value) | L (50% or less control value) | H (more than 50% control value) | L (50% or less control value) | H (more than 50% control value) | L (50% or less control value)
3 | CCCC1=C(c2ccc(F)cc2Br)N(C)C(=O)CC1 [compound 341] | L (50% or less control value) | L (50% or less control value) | L (50% or less control value) | L (50% or less control value) | L (50% or less control value) | L (50% or less control value) | L (50% or less control value) | H (more than 50% control value)
4 | CCc1cc(Cl)c(=O)n(CC)c1-c1ccc(F)cc1Br [compound 342] | H (more than 50% control value) | H (more than 50% control value) | H (more than 50% control value) | L (50% or less control value) | H (more than 50% control value) | L (50% or less control value) | H (more than 50% control value) | H (more than 50% control value)
5 | CCc1cc(Br)c(=O)n(CC)c1-c1ccc(F)cc1Br [compound 343] | H (more than 50% control value) | H (more than 50% control value) | H (more than 50% control value) | L (50% or less control value) | H (more than 50% control value) | H (more than 50% control value) | H (more than 50% control value) | H (more than 50% control value)
6 | CCc1ccc(=O)n(CC)c1-c1ccc(OC)cc1Br [compound 344] | L (50% or less control value) | L (50% or less control value) | H (more than 50% control value) | L (50% or less control value) | H (more than 50% control value) | L (50% or less control value) | H (more than 50% control value) | L (50% or less control value)
7 | CCc1cc(Cl)c(=O)n(CC)c1-c1ccc(OC)cc1Br [compound 345] | H (more than 50% control value) | L (50% or less control value) | H (more than 50% control value) | L (50% or less control value) | H (more than 50% control value) | H (more than 50% control value) | H (more than 50% control value) | H (more than 50% control value)
8 | CCc1cc(Br)c(=O)n(CC)c1-c1ccc(OC)cc1Br [compound 346] | H (more than 50% control value) | L (50% or less control value) | H (more than 50% control value) | L (50% or less control value) | H (more than 50% control value) | H (more than 50% control value) | H (more than 50% control value) | H (more than 50% control value)
9 | CCc1ccc(=O)n(CC)c1-c1ccc(F)cc1C [compound 347] | L (50% or less control value) | L (50% or less control value) | H (more than 50% control value) | L (50% or less control value) | L (50% or less control value) | L (50% or less control value) | H (more than 50% control value) | L (50% or less control value)
10 | CCc1ccc(=O)n(C)c1-c1ccc(F)cc1Br [compound 348] | L (50% or less control value) | H (more than 50% control value) | H (more than 50% control value) | L (50% or less control value) | H (more than 50% control value) | L (50% or less control value) | L (50% or less control value) | L (50% or less control value)
11 | CCc1cc(Cl)c(=O)n(C)c1-c1ccc(F)cc1Br [compound 349] | L (50% or less control value) | H (more than 50% control value) | H (more than 50% control value) | L (50% or less control value) | H (more than 50% control value) | H (more than 50% control value) | H (more than 50% control value) | L (50% or less control value)
12 | CCc1cc(Br)c(=O)n(C)c1-c1ccc(F)cc1Br [compound 350] | L (50% or less control value) | L (50% or less control value) | H (more than 50% control value) | L (50% or less control value) | H (more than 50% control value) | H (more than 50% control value) | H (more than 50% control value) | L (50% or less control value)
13 | CCc1cc(Cl)c(=O)n(CC)c1-c1ccc(F)cc1C [compound 351] | L (50% or less control value) | H (more than 50% control value) | H (more than 50% control value) | L (50% or less control value) | H (more than 50% control value) | L (50% or less control value) | H (more than 50% control value) | H (more than 50% control value)
14 | CCc1cc(Br)c(=O)n(CC)c1-c1ccc(F)cc1C [compound 352] | H (more than 50% control value) | H (more than 50% control value) | H (more than 50% control value) | L (50% or less control value) | H (more than 50% control value) | L (50% or less control value) | H (more than 50% control value) | H (more than 50% control value)
15 | CCc1ccc(=O)n(CC)c1-c1ccc(OC)cc1C [compound 353] | L (50% or less control value) | H (more than 50% control value) | L (50% or less control value) | L (50% or less control value) | H (more than 50% control value) | L (50% or less control value) | L (50% or less control value) | L (50% or less control value)
